Reference: patent US5110816A, “3-[2-(4-arylpiperazin-1-yl)ethoxy]-p-cymene, the method of preparing and composition thereof” (Institut de Recherches Chimiques et Biologiques Appliquees …, priority 1988, dated 1992)
Where a name gives a salt, the structure may show the parent alone.

Columns and labels:
[1] = Acute toxicity in mice, single oral dose; conditions: mouse, in vivo, p.o., 14-day observation
Experimental: The products were administered orally to mice in a single dose. After a 14-day observation period, the mortality was recorded.
The results are expressed in the form of the 50% lethal dose (LD50) in mg.kg^-1.

[2] = molecular target: T1, postsynaptic alpha-adrenergic receptors (Rattus norvegicus, UniProt P43140); test: Alpha-blocking activity on isolated rat vas deferens; assay type: cell-based; conditions: norepinephrine contraction, -log of product concentration at which norepinephrine concentration must be doubled, read-out: pA2 (converted)
T1 construct: contraction of the isolated vas deferens; from tissue; host or cells: isolated rat vas deferens
T1 sequence (P43140 1-466): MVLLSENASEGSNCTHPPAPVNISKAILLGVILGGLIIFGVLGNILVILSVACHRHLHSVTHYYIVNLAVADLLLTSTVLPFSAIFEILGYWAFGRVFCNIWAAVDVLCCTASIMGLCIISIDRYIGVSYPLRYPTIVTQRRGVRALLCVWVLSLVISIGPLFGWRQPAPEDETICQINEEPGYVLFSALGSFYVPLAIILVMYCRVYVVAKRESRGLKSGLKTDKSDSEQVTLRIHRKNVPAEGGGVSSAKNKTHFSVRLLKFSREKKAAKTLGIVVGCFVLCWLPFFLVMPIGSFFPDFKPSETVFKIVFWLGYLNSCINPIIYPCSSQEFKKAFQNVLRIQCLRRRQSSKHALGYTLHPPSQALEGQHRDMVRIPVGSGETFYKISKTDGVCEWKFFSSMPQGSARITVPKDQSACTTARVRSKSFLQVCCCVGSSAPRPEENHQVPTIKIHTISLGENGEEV
Source text: 2. Determination of the Alpha-Blocking Activity on Isolated Rat Vas Deferens
Stimulation of the postsynaptic alpha-adrenergic receptors by norepinephrine causes contraction of the isolated vas deferens. The aim is to find the product concentration in whose presence the norepinephrine concentration must be doubled in order to obtain the same effect as in the absence of said product.
The logarithm of this concentration, with its sign changed, represents the pA2 value of the product.

[3] = system: toxicity of norepinephrine; test: Adrenolytic activity in vivo in rats (protection against norepinephrine lethality); conditions: for ED50: Rattus norvegicus, oral 30 minutes before i.v. norepinephrine 0.4 mg.kg^-1, dose protecting 50 percent of animals; for protection against the toxicity of norepinephrine (in words): oral
Experimental: 4. Determination of the Adrenolytic Activity "In Vivo" in Rats
The intravenous injection of norepinephrine (0.4 mg.kg^-1) in wake rats causes the death of 100 percent of the animals. The prior administration of a substance with an alpha-blocking property makes it possible to reduce this toxicity.
The products claimed were administered orally 30 minutes before the intravenous injection of norepinephrine.
These are expressed in the form of the 50% effective dose (ED50), i.e. the dose, in mg.kg^-1, which protects 50 percent of the animals.

arterial pressure = test: Norepinephrine-induced arterial hyperpressure in anesthetized rabbits; assay type: in vivo; conditions: Oryctolagus cuniculus, iv, norepinephrine i.v., 50% inhibition of increase in arterial pressure, read-out: Arterial pressure ID50
Experimental: (§1) 5. Activity on Ureteral Hyperpressure in Rabbits
(§2) An increase in the arterial pressure and the ureteral pressure is induced in anesthetized rabbits by an intravenous injection of norepinephrine. These hyperpressures can be inhibited by the prior administration of molecules with alpha-blocking potential.
The efficacy is assessed by the 50% inhibitory dose (ID50), i.e. the dose which inhibits the increases in arterial and ureteral pressures by 50 percent.

ureteral pressure = test: Norepinephrine-induced ureteral hyperpressure in anesthetized rabbits; assay type: in vivo; conditions: for ratio of ID50 arterial pressure to ID50 ureteral pressure: I.V.; for ED50: Oryctolagus cuniculus, iv, norepinephrine i.v., 50% inhibition of increase in ureteral pressure, read-out: Ureteral pressure ID50
Source text: as §1, §2

[4] = Solubility remark in the isolated rat vas deferens test (Table II); assay type: physicochemical; conditions: under pA2 in Table II, value N.D.
[5] = system: postsynaptic alpha-adrenergic receptors; test: Alpha-blocking activity on isolated rabbit ureter; assay type: cell-based; conditions: norepinephrine contraction halved, printed in Table II with asterisk
Source text: 3. Determination of the Alpha-Blocking Activity on Isolated Rabbit Ureter
Stimulation of the postsynaptic alpha-adrenergic receptors by norepinephrine causes contraction of the isolated rabbit ureter.
The aim is to find the product concentration in whose presence the contracting effect of a given norepinephrine concentration is halved by comparison with the contraction induced before the addition of said product.
The logarithm of this concentration, with its sign changed, represents the pD'2 value.

| Structure (SMILES) | LD50 at 336 h [1] [mg/kg] | Kb [2] [nM] | ED50 [3] [mg/kg] | protection against the toxicity of norepinephrine (in words) [3] | ED50 (arterial pressure) [mg/kg] | ratio of ID50 arterial pressure to ID50 ureteral pressure (ureteral pressure) | ED50 (ureteral pressure) [mg/kg] | solubility remark [4] | pD'2 [5] |
| --- | --- | --- | --- | --- | --- | --- | --- | --- | --- |
| Cc1ccc(C(C)C)c(OCCN2CCN(c3ccccc3F)CC2)c1 [B.1261, 3-[2-(4-o-fluorophenylpiperazin-1-yl)ethoxy]-p-cymene hydrochloride] | > 1000 | 363 | 20 |  |  |  |  |  |  |
| COc1ccccc1N1CCN(CCOc2cc(C)ccc2C(C)C)CC1 [B.1168, 3-[2-(4-o-methoxyphenylpiperazin-1-yl)-ethoxy]-p-cymene dihydrochloride] | > 1000 | 195 | 3 | excellent protection against the toxicity of norepinephrine |  |  |  |  |  |
| CCOc1cccc(N2CCN(CCOc3cc(C)ccc3C(C)C)CC2)c1 [B.1204, 3-[2-(4-m-ethoxyphenylpiperazin-1-yl)ethoxy]-p-cymene hydrochlroide] | > 1000 | 1000 | 56 |  |  |  |  |  |  |
| Cc1ccc(C(C)C)c(OCCN2CCN(c3ccccc3Cl)CC2)c1 [B 1299, 3-[2-(4-o-chlorophenylpiperazin-1-yl)ethoxy]-p-cymene hydrochloride] | > 1000 | 347 | 10 | excellent protection against the toxicity of norepinephrine |  |  |  |  |  |
| Cc1ccc(C(C)C)c(OCCN2CCN(c3ccc(F)cc3)CC2)c1 [B.1055, 3-[2-(4-p-fluorophenylpiperazin-1-yl)ethoxy]-p-cymene dihydrochloride] | > 1000 | 468 | > 100 |  |  |  |  |  |  |
| Cc1ccc(C(C)C)c(OCCN2CCN(c3cc(Cl)ccc3C)CC2)c1 [B.1256] | > 1000 | > 1000 | 121 |  |  |  |  |  |  |
| Cc1ccc(C(C)C)c(OCCN2CCN(c3ccccc3)CC2)c1 [B.1057, 3-[2-(4-phenylpiperazin-1-yl)ethoxy]-p-cymene dihydrochloride] | > 1000 | 398 | > 100 |  |  |  |  |  |  |
| CCCCOc1ccccc1N1CCN(CCOc2cc(C)ccc2C(C)C)CC1 [B.1340] | > 1000 | > 1000 | 11.3 |  |  |  |  |  |  |
| Cc1ccc(C(C)C)c(OCCN2CCN(c3ccccc3O)CC2)c1 [B.1338] | > 1000 | 40.7 | 6.4 |  | 19 | 11.8 | 1.6 |  |  |
| COc1cccc(N2CCN(CCOc3cc(C)ccc3C(C)C)CC2)c1 [B.1206, 3-[2-(4-m-methoxyphenylpiperazin-1-yl)ethoxy]-p-cymene hydrochloride] | > 1000 | 170 | 100 |  |  |  |  |  |  |
| COc1ccc(N2CCN(CCOc3cc(C)ccc3C(C)C)CC2)cc1 [B.1115, 3-[2-(4-p-methoxyphenylpiperazin-1-yl)ethoxy]-p-cymene dihydrochloride] | > 1000 | 288 | 200 |  |  |  |  |  |  |
| Cc1ccc(C(C)C)c(OCCN2CCN(c3cccc(O)c3)CC2)c1 [B.1343] | > 1000 | 832 | 142 |  |  |  |  |  |  |
| CCCCCOc1ccccc1N1CCN(CCOc2cc(C)ccc2C(C)C)CC1 [B.1356] | > 1000 | > 1000 | 31.1 |  |  |  |  |  |  |
| CC(=O)c1ccc(N2CCN(CCOc3cc(C)ccc3C(C)C)CC2)cc1 [B.1105, 3-[2-(4-p-acetylphenylpiperazin-1-yl)ethoxy]-p-cymene hydrochloride] | ~540 | 537 | 200 |  |  |  |  |  |  |
| Cc1ccc(C(C)C)c(OCCN2CCN(c3c(C)cccc3C)CC2)c1 [B.1393] | > 1000 | > 1000 | > 200 |  |  |  |  |  |  |
| CCOc1ccccc1N1CCN(CCOc2cc(C)ccc2C(C)C)CC1 [B 1178, 3-[2-(4-o-ethoxyphenylpiperazin-1-yl)ethoxy]-p-cymene dihydrochloride] | > 1000 | 72.4 | 2 | excellent protection against the toxicity of norepinephrine | 3.9 | 10.6 | 0.37 |  |  |
| Cc1ccc(C(C)C)c(OCCN2CCN(c3ccccc3C)CC2)c1 [B.1213, 3-[2-(4-o-methylphenylpiperazin-1-yl)-ethoxy]-p-cymene hydrochloride] | > 1000 | 1100 | 15 |  |  |  |  |  |  |
| CCCOc1ccccc1N1CCN(CCOc2cc(C)ccc2C(C)C)CC1 [B.1358] | > 1000 | > 1000 | 2.1 | excellent protection against the toxicity of norepinephrine | 5 | 4.1 | 1.22 |  |  |
| Cc1ccc(C(C)C)c(OCCN2CCN(c3ccc(Cl)cc3C)CC2)c1 [B.1152, 3-[2-4-(4-chloro-2-methyl)phenylpiperazine-1-yl)ethoxy]-p-cymene hydrochloride] | > 1000 |  | > 100 |  |  |  |  | insoluble |  |
| Cc1ccc(C(C)C)c(OCCN2CCN(c3c(C)cccc3Cl)CC2)c1 [B.1326] | > 1000 | > 1000 | > 200 |  |  |  |  |  |  |
| Cc1ccc(N2CCN(CCOc3cc(C)ccc3C(C)C)CC2)c(Cl)c1 [B.1353] | > 1000 | > 1000 | 30.9 |  |  |  |  |  |  |
| Cc1ccc(C(C)C)c(OCCN2CCN(c3ccc(Cl)c(Cl)c3)CC2)c1 [B.1184, 3-[2-4-(3,4-dichloro)phenylpiperazin-1-yl)ethoxy]-p-cymene hydrochloride] | > 1000 |  | > 100 |  |  |  |  | insoluble |  |
| COc1ccc(OC)c(N2CCN(CCOc3cc(C)ccc3C(C)C)CC2)c1 [B.1387] | > 1000 | 355 | 6.78 | excellent protection against the toxicity of norepinephrine |  |  |  |  |  |
| Cc1ccc(C(C)C)c(OCCN2CCN(c3ccc(Cl)cc3)CC2)c1 [B.1191, 3-[2-(4-p-chlorophenylpiperazin-1-yl)ethoxy]-p-cymene dihydrochloride] | > 1000 | 331 | > 100 |  |  |  |  |  |  |
| Cc1ccc(C(C)C)c(OCCN2CCN(c3cccc(C(F)(F)F)c3)CC2)c1 [B.1079, 3-[2-(4-α,α,α-trifluoro-m-tolylpiperazin-1-yl)ethoxy]-p-cymene monohydrochloride] | > 1000 | > 1000 | > 100 |  |  |  |  |  |  |
| Cc1ccc(C(C)C)c(OCCN2CCN(c3ccccc3OC(C)C)CC2)c1 [B.1399] | ~500 |  | 0.78 | excellent protection against the toxicity of norepinephrine | 1.64 | 9.1 | 0.18 |  | 6.69 |
| COc1ccc(N2CCN(CCOc3cc(C)ccc3C(C)C)CC2)c(OC)c1 [B 1362] | 897 | > 1000 | 37.3 |  |  |  |  |  |  |
